Assay results: patent US20240197685A1, “SELECTIVE ANGIOTENSIN II RECEPTOR LIGANDS” (priority 2021, published 2024)
“And” between values parts separate entries of the source, which are not always exact repeats. Equal values may be shown once. Read-outs that look alike come from different tables or passages of the source.

Assays:
CYP2C9 = molecular target: T1, CYP2C9 (Homo sapiens, UniProt P11712); experiment: CYP inhibition, human liver microsomes; assay type: in vitro ADME; conditions: for inhibition at 10 µM: probe diclofenac, substrate diclofenac, human liver microsomes, read-out: CYP2C9 Inh %
T1 construct: tissue Eurofins protocol ITEMG232; host or cells: human liver microsomes
T1 sequence (P11712 whole entry): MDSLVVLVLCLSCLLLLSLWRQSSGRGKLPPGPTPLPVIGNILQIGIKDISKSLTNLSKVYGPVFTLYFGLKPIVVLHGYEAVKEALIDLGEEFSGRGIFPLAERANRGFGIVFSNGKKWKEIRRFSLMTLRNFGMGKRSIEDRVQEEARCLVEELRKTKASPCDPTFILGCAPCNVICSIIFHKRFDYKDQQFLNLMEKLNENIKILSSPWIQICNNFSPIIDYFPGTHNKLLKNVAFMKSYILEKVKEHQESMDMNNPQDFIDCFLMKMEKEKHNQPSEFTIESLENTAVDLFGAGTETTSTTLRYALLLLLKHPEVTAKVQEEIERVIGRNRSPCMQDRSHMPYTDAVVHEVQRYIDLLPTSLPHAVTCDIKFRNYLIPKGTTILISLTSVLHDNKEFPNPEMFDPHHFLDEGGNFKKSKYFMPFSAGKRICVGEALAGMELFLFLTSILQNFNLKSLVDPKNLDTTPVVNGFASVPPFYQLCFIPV

[1] = Metabolic stability in pooled human liver microsomes; assay type: in vitro ADME; conditions: for half-life at 1 μM: human, pooled human liver microsomes, human liver microsomes 0.5 mg/mL, test compound 1 μM, 37° C.
CYP3A4 = molecular target: T2, CYP3A4 (Homo sapiens, UniProt P08684); experiment: CYP inhibition, human liver microsomes; assay type: in vitro ADME; conditions: for inhibition at 10 µM: probe midazolam, substrate midazolam, human liver microsomes, read-out: CYP3A4 midazolam Inh %
T2 construct: tissue Eurofins protocol ITEMG232; host or cells: human liver microsomes
T2 sequence (P08684 whole entry): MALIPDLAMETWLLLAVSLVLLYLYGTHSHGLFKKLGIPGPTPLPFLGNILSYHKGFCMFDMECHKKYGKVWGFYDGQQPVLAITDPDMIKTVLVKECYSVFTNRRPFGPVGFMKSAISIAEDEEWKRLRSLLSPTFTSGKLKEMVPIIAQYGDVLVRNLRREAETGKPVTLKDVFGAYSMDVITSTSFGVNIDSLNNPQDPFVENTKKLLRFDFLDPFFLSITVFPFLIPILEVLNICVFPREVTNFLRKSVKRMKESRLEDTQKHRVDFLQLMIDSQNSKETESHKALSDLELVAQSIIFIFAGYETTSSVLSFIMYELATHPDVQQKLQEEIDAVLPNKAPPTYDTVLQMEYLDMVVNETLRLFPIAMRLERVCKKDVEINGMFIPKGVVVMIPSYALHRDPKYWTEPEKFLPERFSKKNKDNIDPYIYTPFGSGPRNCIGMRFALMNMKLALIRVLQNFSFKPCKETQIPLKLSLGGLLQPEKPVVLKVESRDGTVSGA

CYP3A4&5 = experiment: CYP inhibition, human liver microsomes; assay type: in vitro ADME; conditions: probe testosterone, substrate testosterone, read-out: CYP3A4&5 testosterone Inh %
[2] = molecular target: T3, human recombinant AT1 receptor (Homo sapiens, UniProt P30556); experiment: Binding to AT1 receptor, radiometric scintillation assay (Eurofins); conditions: single run; 1 and 10 μM; ligand 125I(sar1,Ile8)-AT-II
T3 construct: Eurofins protocol ITEM24
T3 sequence (P30556 1-359): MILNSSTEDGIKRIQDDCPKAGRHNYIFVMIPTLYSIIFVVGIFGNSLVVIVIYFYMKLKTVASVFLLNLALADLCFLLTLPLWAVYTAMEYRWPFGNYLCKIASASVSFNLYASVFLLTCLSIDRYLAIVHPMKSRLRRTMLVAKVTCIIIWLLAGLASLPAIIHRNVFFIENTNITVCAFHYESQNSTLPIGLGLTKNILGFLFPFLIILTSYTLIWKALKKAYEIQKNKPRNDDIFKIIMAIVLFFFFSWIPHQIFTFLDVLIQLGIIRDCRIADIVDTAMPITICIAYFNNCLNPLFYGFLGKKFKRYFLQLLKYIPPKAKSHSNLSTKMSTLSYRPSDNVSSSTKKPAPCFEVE

CYP2C8 = molecular target: T4, CYP2C8 (Homo sapiens, UniProt P10632); experiment: CYP inhibition, human liver microsomes; assay type: in vitro ADME; conditions: probe paclitaxel and amodiaquine, substrates paclitaxel and amodiaquine, read-out: CYP2C8 Inh %
T4 construct: tissue Eurofins protocol ITEMG232; host or cells: human liver microsomes
T4 sequence (P10632 1-490): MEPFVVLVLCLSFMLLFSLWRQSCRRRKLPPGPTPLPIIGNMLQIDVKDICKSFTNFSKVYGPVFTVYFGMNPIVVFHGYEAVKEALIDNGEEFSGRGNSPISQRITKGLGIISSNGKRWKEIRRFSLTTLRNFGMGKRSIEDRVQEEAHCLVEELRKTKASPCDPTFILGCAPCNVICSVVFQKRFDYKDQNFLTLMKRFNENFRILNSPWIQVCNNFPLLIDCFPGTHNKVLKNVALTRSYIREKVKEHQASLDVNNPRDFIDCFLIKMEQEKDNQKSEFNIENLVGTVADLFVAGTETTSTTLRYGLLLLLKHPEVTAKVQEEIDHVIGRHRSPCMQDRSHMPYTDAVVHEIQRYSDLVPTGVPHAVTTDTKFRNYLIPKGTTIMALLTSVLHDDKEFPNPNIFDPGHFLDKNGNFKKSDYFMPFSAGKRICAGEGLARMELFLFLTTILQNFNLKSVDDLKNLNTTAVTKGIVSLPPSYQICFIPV

CYP2C19 = molecular target: T5, CYP2C19 (Homo sapiens, UniProt P33261); experiment: CYP inhibition, human liver microsomes; assay type: in vitro ADME; conditions: probe omeprazole, substrate omeprazole, read-out: CYP2C19 Inh %
T5 construct: tissue Eurofins protocol ITEMG232; host or cells: human liver microsomes
T5 sequence (P33261 whole entry): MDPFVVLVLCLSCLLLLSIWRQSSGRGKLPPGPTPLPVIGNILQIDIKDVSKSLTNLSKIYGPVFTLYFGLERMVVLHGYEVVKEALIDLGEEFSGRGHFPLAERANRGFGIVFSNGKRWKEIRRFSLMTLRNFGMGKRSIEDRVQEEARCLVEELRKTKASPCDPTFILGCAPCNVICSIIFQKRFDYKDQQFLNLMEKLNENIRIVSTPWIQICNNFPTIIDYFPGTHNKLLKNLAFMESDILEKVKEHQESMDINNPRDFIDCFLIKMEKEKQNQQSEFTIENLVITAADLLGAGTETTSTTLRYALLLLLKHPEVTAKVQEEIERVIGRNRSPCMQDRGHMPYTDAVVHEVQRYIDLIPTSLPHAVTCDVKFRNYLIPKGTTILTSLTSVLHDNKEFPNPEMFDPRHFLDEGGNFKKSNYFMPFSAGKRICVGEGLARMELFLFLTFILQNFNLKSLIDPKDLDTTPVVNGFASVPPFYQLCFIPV

CYP2D6 = molecular target: T6, CYP2D6 (Homo sapiens, UniProt P10635); experiment: CYP inhibition, human liver microsomes; assay type: in vitro ADME; conditions: probe dextromethorphan, substrate dextromethorphan, read-out: CYP2D6 Inh %
T6 construct: tissue Eurofins protocol ITEMG232; host or cells: human liver microsomes
T6 sequence (P10635 whole entry): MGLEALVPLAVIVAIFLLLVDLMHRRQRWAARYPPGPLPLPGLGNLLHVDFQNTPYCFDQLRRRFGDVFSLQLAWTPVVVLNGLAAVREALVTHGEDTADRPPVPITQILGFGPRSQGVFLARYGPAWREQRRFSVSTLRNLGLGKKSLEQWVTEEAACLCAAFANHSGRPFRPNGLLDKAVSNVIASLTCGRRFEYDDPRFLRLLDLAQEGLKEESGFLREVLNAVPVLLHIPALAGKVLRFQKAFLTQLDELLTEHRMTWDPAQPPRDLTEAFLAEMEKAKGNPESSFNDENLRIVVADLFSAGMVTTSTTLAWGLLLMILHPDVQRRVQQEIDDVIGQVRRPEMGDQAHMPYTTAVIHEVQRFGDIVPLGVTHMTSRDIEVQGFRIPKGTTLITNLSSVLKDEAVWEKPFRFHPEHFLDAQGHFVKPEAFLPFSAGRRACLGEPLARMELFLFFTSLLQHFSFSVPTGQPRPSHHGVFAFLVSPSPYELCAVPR

CYP1A = molecular target: T7, CYP1A (Homo sapiens, UniProt P05177); experiment: CYP inhibition, human liver microsomes; assay type: in vitro ADME; conditions: probe phenacetin, substrate phenacetin, read-out: CYP1A Inh %
T7 construct: tissue Eurofins protocol ITEMG232; host or cells: human liver microsomes
T7 sequence (P05177 2-516 limits assumed): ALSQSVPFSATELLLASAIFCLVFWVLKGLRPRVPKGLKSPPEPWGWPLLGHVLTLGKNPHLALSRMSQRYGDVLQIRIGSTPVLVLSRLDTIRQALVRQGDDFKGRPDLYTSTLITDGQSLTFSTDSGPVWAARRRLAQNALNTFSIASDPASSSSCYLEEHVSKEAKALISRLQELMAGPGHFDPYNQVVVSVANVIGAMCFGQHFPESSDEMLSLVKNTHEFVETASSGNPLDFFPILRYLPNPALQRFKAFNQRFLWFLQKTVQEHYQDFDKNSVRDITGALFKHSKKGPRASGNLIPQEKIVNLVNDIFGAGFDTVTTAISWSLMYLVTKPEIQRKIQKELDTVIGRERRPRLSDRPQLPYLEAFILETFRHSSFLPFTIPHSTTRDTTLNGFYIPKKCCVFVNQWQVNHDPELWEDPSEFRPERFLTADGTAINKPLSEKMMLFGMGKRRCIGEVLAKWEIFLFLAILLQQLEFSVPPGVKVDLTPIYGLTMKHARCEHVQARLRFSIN

[3] = molecular target: T8, human recombinant AT2 receptor (Homo sapiens, UniProt P50052); experiment: Binding to AT2 receptor, radiometric scintillation assay (Eurofins); conditions: for IC50: read-out: AT2 GraFit IC50; for Ki: seven-point dose-response curve, read-out: AT2R Ki
T8 construct: Eurofins protocol ITEM26
T8 sequence (P50052 1-363): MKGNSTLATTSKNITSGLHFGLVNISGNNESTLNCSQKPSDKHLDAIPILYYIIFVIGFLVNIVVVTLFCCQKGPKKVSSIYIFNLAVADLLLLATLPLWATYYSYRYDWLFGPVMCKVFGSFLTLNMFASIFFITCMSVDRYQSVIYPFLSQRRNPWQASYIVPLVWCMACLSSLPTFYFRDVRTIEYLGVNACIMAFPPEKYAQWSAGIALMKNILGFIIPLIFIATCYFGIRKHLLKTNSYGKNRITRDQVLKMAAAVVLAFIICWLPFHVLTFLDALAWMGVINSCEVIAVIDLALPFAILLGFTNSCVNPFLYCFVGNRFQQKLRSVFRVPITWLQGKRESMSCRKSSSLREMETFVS

CYP2B6 = molecular target: T9, CYP2B6 (Homo sapiens, UniProt P20813); experiment: CYP inhibition, human liver microsomes; assay type: in vitro ADME; conditions: probe bupropion, substrate bupropion, read-out: CYP2B6 Inh %
T9 construct: tissue Eurofins protocol ITEMG232; host or cells: human liver microsomes
T9 sequence (P20813 1-491): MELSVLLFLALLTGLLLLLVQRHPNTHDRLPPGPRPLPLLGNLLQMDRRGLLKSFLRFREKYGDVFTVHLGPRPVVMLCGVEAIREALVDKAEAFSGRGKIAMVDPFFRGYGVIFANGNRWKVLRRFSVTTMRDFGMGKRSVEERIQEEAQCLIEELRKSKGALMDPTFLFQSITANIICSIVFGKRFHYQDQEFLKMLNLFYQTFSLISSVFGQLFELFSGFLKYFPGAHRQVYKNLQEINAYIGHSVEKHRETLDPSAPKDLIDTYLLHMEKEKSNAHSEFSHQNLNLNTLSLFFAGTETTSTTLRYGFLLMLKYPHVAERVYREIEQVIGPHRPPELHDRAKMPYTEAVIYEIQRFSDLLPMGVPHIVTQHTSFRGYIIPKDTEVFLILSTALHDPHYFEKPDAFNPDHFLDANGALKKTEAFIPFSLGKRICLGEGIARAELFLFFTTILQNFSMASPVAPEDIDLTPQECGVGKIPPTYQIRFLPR

[4] = found during development, background statement
[5] = single run, 1, 10, 100 and 1000 nM, ligand 125I CGP 42112A
[6] = with 1 mM NADPH, read-out: T1/2, + NaDPH
[7] = without NADPH, read-out: T1/2, no NaDPH

inhibition of CYP 2C9 (in words) (CYP2C9; [4]) | inhibition of CYP 3A4 (in words) (CYP3A4; [4]) | inhibition at 10 µM (CYP3A4&5) [%] | IC50 [2] [nM] | inhibition at 10 µM (CYP2C8) [%] | inhibition at 10 µM (CYP2C19) [%] | inhibition at 10 µM (CYP2C9) [%] | inhibition at 10 µM (CYP2D6) [%] | inhibition at 10 µM (CYP1A) [%] | IC50 [3, 5] | inhibition at 10 µM (CYP2B6) [%] | half-life at 1 μM [1, 6] [h] | half-life at 1 μM [1, 7] [h] | inhibition at 10 µM (CYP3A4) [%] | IC50 ([3]; mean average of the runs) [nM] | Ki ([3]; ligand 125I CGP 42112A) [nM] | SMILES | metabolic hydrolysis (in words) [1, 4]
potent inhibitor | potent inhibitor |  |  |  |  |  |  |  |  |  |  |  |  |  |  | CCCCOC(=O)NS(=O)(=O)c1sc(CC(C)C)cc1-c1ccc(Cn2ccnc2)cc1 [Example C21, N-butyloxycarbonyl-3-(4-imidazol-1-ylmethylphenyl)-5-isobutylthiophene-2-sulfon-amide, reference compound] | rapidly hydrolysed to an inactive sulfonamide metabolite
 |  | 18.9 | 1800 | 78.3 | 52.1 | 62.1 | 23.2 | 34.1 | 0.44 nM | 24.9 | > 1 | > 1 | 43 |  |  | CC(C)Cc1cc(-c2ccc(Cn3ccnc3C(C)(C)C)c(F)c2)c(S(=O)(=O)NC(=O)NCc2ccccn2)s1 [Example 5, 1-[[3-[4-[(2-Tert-butylimidazol-1-yl)methyl]-3-fluoro-phenyl]-5-isobutyl-2-thienyl]sulfonyl]-3-(2-pyridylmethyl)urea] | 
 |  | 18 | 2000 | 81.8 | 56.8 | 64.6 | 33.6 | -1.8 | 2.5 nM | 9.6 | 0.533 | > 1 | 40.9 | 2.5 | 1.25 | CC(C)Cc1cc(-c2ccc(Cn3ccnc3C(C)(C)C)cc2)c(S(=O)(=O)NC(=O)NCc2cccs2)s1 [Example 2] | 
 |  |  |  |  |  |  |  |  |  |  | > 1 | > 1 |  |  |  | COCCNC(=O)NS(=O)(=O)c1sc(CC(C)C)cc1-c1ccc(Cn2ccnc2C(C)(C)C)cc1 [Example 3] | 
 |  | 16.7 | 3000 | 79.3 | 44.4 | 43.5 | 24.3 | -0.5 | 3.7 nM and 2.1 nM | 13.8 | > 1 | > 1 | 33.7 | 2.9 | 1.9 | CC(C)Cc1cc(-c2ccc(Cn3ccnc3C(C)(C)C)cc2)c(S(=O)(=O)NC(=O)NCc2ccccn2)s1 [Example 4] | 
 |  | 10.8 |  | 77.6 | 35.1 | 39.7 | 18.8 | 15.8 |  | 27 | > 1 | > 1 | 23.8 |  |  | CCNC(=O)NS(=O)(=O)c1sc(CC(C)C)cc1-c1ccc(Cn2ccnc2C(C)(C)C)c(F)c1 [Example 6, 1-[[3-[4-[(2-Tert-butylimidazol-1-yl)methyl]-3-fluoro-phenyl]-5-isobutyl-2-thienyl]sulfonyl]-3-ethyl-urea] | 
 |  | 11.8 | 3000 | 77.8 | 49.1 | 58.4 | 13.8 | -13.2 | 2.6 nM and 5.7 nM | 96.5 | > 1 | > 1 | 11.6 | 4.2 | 2.8 | CC(C)Cc1cc(-c2ccc(Cn3ccnc3C(C)(C)C)cc2)c(S(=O)(=O)NC(=O)NCc2ccco2)s1 [Example 1, Furan-2-ylmethyl-3-[[5-isobutyl-3-[4-[(2-tert-butyl-imidazol-1-yl)methyl]phenyl]-2-thienyl]sulfonyl]urea] | 
 |  | 16.7 | 3100 | 79.9 | 49.1 | 76.3 | 13.8 | 20.7 | 5 nM | 50.5 | 0.383 | > 1 | 52.3 |  |  | CC(C)Cc1cc(-c2ccc(Cn3ccnc3C(C)(C)C)c(F)c2)c(S(=O)(=O)NC(=O)NCc2cccs2)s1 [Example 7, 1-[[3-[4-[(2-Tert-butylimidazol-1-yl)methyl]-3-fluoro-phenyl]-5-isobutyl-2-thienyl]sulfonyl]-3-(2-thienylmethyl)urea] | 
